This is an account of results in patent US20240248100A1, “SEPTAPEPTIDES ASSOCIATED WITH NEURODEGENERACY” (SEPTA THERAPEUTICS, INC., priority 2018, published 2024).

In one experiment the test system is RG cells. The note with it: 1 mM dB-cAMP; cited from earlier work.
Another experiment concerns RG progenitor cells. In words: Maturation (mitogenic-like) activity on rat glial (RG) progenitor cell monolayers, scored visually. The experiment is classed as cell-based. The following applies: 72 hours, above untreated baseline. How it is done:
Since no appropriate CNS-derived cells are available for the detection of Ca^+2 mobilization, a continuous cell line of glial stem cells was established in culture in order to detect mitogenic-like effects scored upon visual examination. Glial cells from normal brain following kainic acid-induced lesions were established in continuous cell culture as previously described by Singh VK and Van Alstyne D., Brain Res (1978) 155:418-421.) Briefly, 1 ul of a solution of kainic acid monohydrate (Sigma), containing 5 nmole kainic acid in 0.9% saline, was injected into rat striatum under anaesthesia. Rats were anaesthetized and decapitated 5 days following injection and the brains were harvested immediately and placed in a sterile glass culture dish. The striatum from the injection site was dissected, placed in MEM (Gibco) containing 0.2% glucose, 10% fetal calf serum, 5 units/ml penicillin, 5 ug/ml streptomycin and then further minced using a sterile scalpel. The culture dish was then incubated at 37° C. in a humidified atmosphere containing 5% CO2. Each day for the first 3-4 days, the unattached tissue fragments were removed, washed once in fresh medium and returned to the culture dish until a complete monolayer was formed. The resulting monolayers were then subcultured every 5-6 days after trypsinization. The monolayers were treated with 0.25% trypsin (Gibco) for 5 minutes at 22° C. The cells were collected by low speed centrifugation, washed twice with complete growth medium, counted and replated in glass culture dishes. Once the cell line was established in glass dishes, the cells were then adapted and transferred to plastic culture dishes.
The mitogenic effect of diBcAMP on RG monolayers is shown in FIGS. 7A (untreated) and 7B (treated) cells after 24 hours. […] Mature cells were characterized using ThermoFisher Scientific CD11b and GFAP (Glial Fibrillary Acidic Protein) monoclonal antibodies AlexaFluor commonly used to detect microglial- and astrocyte-specific markers respectively. (Tran, E., et al. J. Neuroimmunology 74 (1997) 121-129). FIGS. 8A-8D show identical cells under brightfield illumination, with positive staining for microglial and astrocyte markers (CD11b and GFAP markers respectively. The identification of the majority of these cells as microglia, a subset of astrocytes, is significant since an overabundance of microglia has been associated with the development of AD (Weizmann Institute of Science, “The brain's rejuvenating cells,” Science Daily, 9 June, 2017:sciencedaily.com/release/2017/06/170609135903).
Peptides derived from amyloid beta and synthesized by Kinexus Inc. (Vancouver, Canada) were tested for their effects on RG cell cultures, according to the method of Yankner BR, et al., Science (1990) 250:279-282. Since septapeptides may be too small or unstable to form avid bonds with cell surface receptors, the 7 mer was bracketed within a slightly longer 10-mer construct, in order to maximize stability during the incubation procedure. A randomized sequence was used as a negative control.
These peptides were dissolved in DMSO (dimethyl sulfoxide) to maintain stability. This solvent slightly altered the shape of some cells at lower dilutions of peptide, giving a high background. Therefore, to avoid any interference with the results, RG cells were incubated in the presence of peptide concentrations ranging from […] to 10^-7 M for 72 hours. Positive cells were counted and data are presented as the number greater than the baseline number of maximal mature glia in untreated control cultures achieved by day 3, taken to be zero. Results are shown in Table 3 and photos of transformed cells are contained in FIGS. 9A and 9B.

For the next experiment, the system named is THP-1 cells. In words: Ca+2 mobilization (Indo-1AM fluorescence) and desensitization in THP-1 monocytic cells. It counts as cell-based. The note with it: for Ca^+2 flux: peptide alone; for DESENSITIZATION: desensitization of subsequent Ca+2 mobilization by MCP-1 or heterologous septapeptide. The text has this:
Alternately, chemokine activity can be measured more quantitatively using Ca^+2 mobilization. Chemokines including MCP-1, -2 and -3 bind to several transmembrane, G-protein-linked receptors on the surface of monocytes, macrophages and microglia. Ligand binding induces signal transduction through the receptor-associated heterotrimeric G-proteins, leading to the generation of free Ca^+2 in the cytoplasm of chemokine-stimulated cells. The Ca^+2 rise is transient, and can be measured using a spectrofluorimeter. (The Cytokine Handbook) A typical readout is represented in FIG. 3, showing a positive Ca^+2 mobilization response to MCP-1 in THP-1 cells. THP-1 monocytic cells were loaded with the Ca^+2 indicator dye Indo-1AM and their cytoplasmic Ca^+2 content was measured during laser excitation. As Ca^+2 increases in the cytoplasm, the relative fluorescence intensity (RFI) of the dye increases in real time, exciting the detectors in the spectrofluorimeter. For example, after MCP-1 challenge of THP-1 cells, the RFI increases rapidly, and returns to baseline after about 60 seconds, as exemplified by the “spike” in the trace in FIG. 3 (the smaller peak before the large spike is an artifact generated by the introduction of the sample). Because the heterotrimeric G-proteins involved in the generation of the Ca^+2 signal are both rapidly dissociated and deactivated by phosphorylation, the increase in cytoplasmic Ca^+2 after ligand engagement can be desensitized. Therefore, challenging the cells a second time with MCP-1 would not result in a second spike, nor would a Ca^+2 spike result from subsequent challenge by another ligand which engages the same MCP-1 receptor
Some of the bacterial septapeptide MRHAS's (Sigma) were tested for their ability to increase cytoplasmic Ca^+2, and to desensitize subsequent Ca^+2 mobilization by MCP-1 and heterologous septapeptides. […] These included QQTAPKA (SEQ ID NO: 12) of L.monocytogenes (Figure. 4) and QVQNNKP (SEQ ID NO: 13) from H.influenzae type b (FIG. 5).

“Also recorded” adds a separate entry of the source.

Regarding `CCCC(=O)Nc1ncnc2c1ncn2[C@@H]1O[C@@H]2COP(=O)(O)O[C@H]2[C@H]1OC(=O)CCC` [diBcAMP, dibutyryl cyclicAMP], in the experiment with RG cells, the “cells with intracellular astrocyte-specific GFA protein” value is 80% and the “cells with surface oligodendrocyte-specific galactocerebroside (GC)” value is “less than 10%”.
Consider “FLVKAHEQFH [Peptide #3, reference compound]”, for which the “Maturation activity, % conversion” value in the experiment with RG progenitor cells (peptide 10^−6 M (1 uM)) and in the experiment with RG progenitor cells (peptide 10^−7 M (100 nM)) was below 1% throughout.
As for “MCP-1: human Monocyte Chemoattractant Protein 1, chemokine, positive control”, the results for the “Ca^+2 flux” value with THP-1 cells and in the experiment with THP-1 cells (listed as hMCP-1) were “positive” and “positive Ca^+2 responses”, respectively.
With “QQQPPKA [S. pneumoniae-derived MRHAS septapeptide]”, in the experiment on THP-1 cells, the DESENSITIZATION result is recorded as “blocks activation by the Listeria-derived MRHAS; also recorded: positive for QQTAPKA” and the “Ca^+2 flux” value was “negative; also recorded: did not induce a Ca^+2 signal”.
For “QQTAPKA [L. monocytogenes-derived MRHAS septapeptide]” the same measures were “lack of subsequent desensitization to MCP 1; also recorded: negative for MCP-1” and “positive; also recorded: mild Ca^+2 agonists”.
For the molecule “QVQNNKP [H. influenzae type b-derived MRHAS septapeptide]”, in the experiment with THP-1 cells (Ca+2 mobilization response), the “relative fluorescence intensity (RFI)” value was determined as 2.0. In the experiment with THP-1 cells, the DESENSITIZATION result is “blocks activation by the Listeria-derived MRHAS; also recorded: positive for QQTAPKA” and the “Ca^+2 flux” value is reported as “mild Ca^+2 agonists; also recorded: weakly positive”.
With ^1DAEFRHDSGYEVHHQKLVF^19 [Peptide #1], the entries for the “Maturation activity, % conversion” value in the experiment on RG progenitor cells (peptide 10^−6 M (1 uM)) and in the experiment with RG progenitor cells (peptide 10^−7 M (100 nM)) were 63% and 41%, respectively.
For “^13HHEQKLVFFAE^22 (HHQKLVFFAE) [Peptide #2]”, the “Maturation activity, % conversion” value with RG progenitor cells (peptide 10^−6 M (1 uM)) amounted to 41%; in the experiment on RG progenitor cells (peptide 10^−7 M (100 nM)), 27%; in the experiment on RG progenitor cells (peptide 10^−7 M (100 nM), listed as HHQKLVFFAE) it was 27%.
